Test results from US20240101531A1, “PYRIDINAMINE DERIVATIVES AND THEIR USE AS POTASSIUM CHANNEL MODULATORS” (Xenon Pharmaceuticals Inc., priority 2022, published 2024).
Counter-ions that a name gives are not always drawn.

target: human KV7.2/KV7.3 (Homo sapiens (Human), UniProt O43525+O43526); test: Potassium flux assay (IPG-2 AM dye); assay type: cell-based; conditions: TREX HEK 293 or HEK 293 cells expressing human KV7.2/KV7.3; arithmetic mean values
Summary of the method: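 EC50 from 16 concentrations (2-fold dilutions, top 30 μM), scaled between DMSO baseline and a known KV7.x modulator maximum. Signal is IPG-2 AM fluorescence (ex 530/em 558 nm) after 10 mM KCl challenge buffer addition, following 20 min room-temperature compound exposure of HEK 293 or TREX HEK 293 cells stably expressing human KV7.2/KV7.3.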

| EC50 | Structure (SMILES) |
| --- | --- |
| < 1000 nM | Clc1ccc(Nc2nccc3cc(OCc4cnn(C5COC5)c4)ccc23)cn1 [Example 117, N-(6-chloropyridin-3-yl)-6-((1-(oxetan-3-yl)-1H-pyrazol-4-yl)methoxy)isoquinolin-1-amine] |
| < 1000 nM | O[C@@H]1CCCC[C@H]1Oc1ccc2c(Nc3ccc(Cl)nc3)nccc2c1 (relative stereo) [Example 143, trans-2-((1-((6-chloropyridin-3-yl)amino)isoquinolin-6-yl)oxy)cyclohexan-1-ol] |
| < 1000 nM | CC1(COc2ccc3c(Nc4cnc(Cl)c(O)c4)nccc3c2)COC1 [Example 42, 2-chloro-5-((6-((3-methyloxetan-3-yl)methoxy)isoquinolin-1-yl)amino)pyridin-3-ol] |
| < 1000 nM | FC1(COc2ccc3c(Nc4ccc(Cl)nc4)nccc3c2)CC1 [Example 181, N-(6-chloropyridin-3-yl)-6-((1-fluorocyclopropyl)methoxy)isoquinolin-1-amine] |
| 1000 to 10000 nM | FC1(F)COCC1Oc1ccc2c(Nc3ccc(Cl)nc3)nccc2c1 (stereo not drawn) [Example 86, N-(6-chloropyridin-3-yl)-6-((4,4-difluorotetrahydrofuran-3-yl)oxy)isoquinolin-1-amine 2,2,2-trifluoroacetate] |
| < 1000 nM | FC1(F)CCC(Oc2ccc3c(Nc4ccc(Cl)nc4)nccc3c2)CC1 [Example 93, N-(6-chloropyridin-3-yl)-6-((4,4-difluorocyclohexyl)oxy)isoquinolin-1-amine] |
| 1000 to 10000 nM | CS(=O)(=O)N1CCC(Oc2ccc3c(Nc4ccc(Cl)nc4)nccc3c2)CC1 [Example 118, N-(6-chloropyridin-3-yl)-6-((1-(methylsulfonyl)piperidin-4-yl)oxy)isoquinolin-1-amine] |
| 10000 to 30000 nM | CO[C@H]1CC[C@@H](Oc2ccc3c(Nc4ccc(Cl)nc4)nccc3c2)CC1 [Example 104, N-(6-chloropyridin-3-yl)-6-(((1s,4s)-4-methoxycyclohexyl)oxy)isoquinolin-1-amine] |
| < 1000 nM | Cc1oncc1COc1ccc2c(Nc3ccc(Cl)nc3)nccc2c1 [Example 156, N-(6-chloropyridin-3-yl)-6-((5-methylisoxazol-4-yl)methoxy)isoquinolin-1-amine] |
| < 1000 nM | FC(F)Cn1cc(COc2ccc3c(Nc4ccc(Cl)nc4)nccc3c2)cn1 [Example 380, N-(6-chloropyridin-3-yl)-6-((1-(2,2-difluoroethyl)-1H-pyrazol-4-yl)methoxy)isoquinolin-1-amine] |
| < 1000 nM | COc1ncc(Nc2nccc3cc(OCc4cnn(C)c4)ccc23)cn1 [Example 371, N-(2-methoxypyrimidin-5-yl)-6-((1-methyl-1H-pyrazol-4-yl)methoxy)isoquinolin-1-amine] |
| < 1000 nM | Clc1ccc(Nc2nccc3cc(OCc4cn[nH]c4)ccc23)cn1 [Example 334, 6-((1H-pyrazol-4-yl)methoxy)-N-(6-chloropyridin-3-yl)isoquinolin-1-amine] |
| < 1000 nM | O=C(N[C@H]1CCC[C@@H](Oc2ccc3c(Nc4cnc(Cl)nc4)nccc3c2)C1)C(F)(F)F [Example 377, N-((1 S,3R)-3-((1-((2-chloropyrimidin-5-yl)amino)isoquinolin-6-yl)oxy)cyclohexyl)-2,2,2-trifluoroacetamide] |
| 1000 to 10000 nM | Cc1ccc2c(Nc3ccc(Cl)nc3)nccc2c1 [Example 20, N-(6-chloropyridin-3-yl)-6-methylisoquinolin-1-amine formate] |
| 1000 to 10000 nM | O[C@@H]1COC[C@@H]1Oc1ccc2c(Nc3ccc(Cl)nc3)nccc2c1 (racemic) [Example 79, rac-(3R,4S)-4-((1-((6-chloropyridin-3-yl)amino)isoquinolin-6-yl)oxy)tetrahydrofuran-3-ol] |
| < 1000 nM | O[C@@H]1CCC[C@H](Oc2ccc3c(Nc4cnc(Cl)nc4)nccc3c2)C1 (relative stereo) [Example 348, cis-3-((1-((2-chloropyrimidin-5-yl)amino)isoquinolin-6-yl)oxy)cyclohexan-1-ol] |
| 1000 to 10000 nM | N#C[C@H]1CCC[C@H](Oc2ccc3c(Nc4ccc(Cl)nc4)nccc3c2)C1 [Example 342, (1 S,3S)-3-((1-((6-chloropyridin-3-yl)amino)isoquinolin-6-yl)oxy)cyclohexane-1-carbonitrile] |
| < 1000 nM | Clc1ccc(Nc2nccc3cc(O[C@@H]4CCOC4)ccc23)cn1 [Example 297, (R)-N-(6-chloropyridin-3-yl)-6-((tetrahydrofuran-3-yl)oxy)isoquinolin-1-amine trifluoroacetate] |
| 1000 to 10000 nM | CC(=O)N1CCC[C@H](Oc2ccc3c(Nc4ccc(Cl)nc4)nccc3c2)C1 [Example 122, (S)-1-(3-((1-((6-chloropyridin-3-yl)amino)isoquinolin-6-yl)oxy)piperidin-1-yl)ethan-1-one] |
| < 1000 nM | COCC1(COc2ccc3c(Nc4ccc(Cl)nc4)nccc3c2)COC1 [Example 306, N-(6-chloropyridin-3-yl)-6-((3-(methoxymethyl)oxetan-3-yl)methoxy)isoquinolin-1-amine] |
| ≥ 30000 nM | Clc1ccc(Nc2nccc3cc(OCC45CCCN4CCC5)ccc23)cn1 [Example 115, N-(6-chloropyridin-3-yl)-6-((tetrahydro-1H-pyrrolizin-7a(5H)-yl)methoxy)isoquinolin-1-amine] |
| < 1000 nM | CC(=O)N1CCC[C@@H](Oc2ccc3c(Nc4ccc(Cl)nc4)nccc3c2)C1 [Example 123, (R)-1-(3-((1-((6-chloropyridin-3-yl)amino)isoquinolin-6-yl)oxy)piperidin-1-yl)ethan-1-one] |
| < 1000 nM | Clc1ccc(Nc2nccc3cc(OCc4cnsc4)ccc23)cn1 [Example 301, N-(6-chloropyridin-3-yl)-6-(isothiazol-4-ylmethoxy)isoquinolin-1-amine] |
| 1000 to 10000 nM | CC(C)(COc1ccc2c(Nc3ccc(Cl)nc3)nccc2c1)N1CCOCC1 [Example 101, N-(6-chloropyridin-3-yl)-6-(2-methyl-2-morpholinopropoxy)isoquinolin-1-amine] |
| < 1000 nM | N#CC12CC(COc3ccc4c(Nc5cnc(Cl)nc5)nccc4c3)(C1)C2 [Example 40, 3-(((1-((2-chloropyrimidin-5-yl)amino)isoquinolin-6-yl)oxy)methyl)bicyclo[1.1.1]pentane-1-carbonitrile] |
| < 1000 nM | C[C@]1(O)CCC[C@@H](Oc2ccc3c(Nc4ccc(Cl)nc4)nccc3c2)C1 [Example 148, (1S,3R)-3-((1-((6-chloropyridin-3-yl)amino)isoquinolin-6-yl)oxy)-1-methylcyclohexan-1-ol] |
| < 1000 nM | Cn1cc(COc2ccc3c(Nc4ccc(Cl)nc4)nccc3c2)cn1 [Example 196, N-(6-chloropyridin-3-yl)-6-((1-methyl-1H-pyrazol-4-yl)methoxy)isoquinolin-1-amine] |
| 1000 to 10000 nM | Clc1ccc(Nc2nccc3ccsc23)cn1 [Example 12, N-(6-chloropyridin-3-yl)thieno[2,3-c]pyridin-7-amine] |
| < 1000 nM | C[C@H](Oc1ccc2c(Nc3ccc(Cl)nc3)nccc2c1)c1ccncc1 [Example 237, (S)—N-(6-chloropyridin-3-yl)-6-(1-(pyridin-4-yl)ethoxy)isoquinolin-1-amine] |
| 1000 to 10000 nM | Clc1ccc(Nc2nccc3cc(Oc4cn[nH]c4)ccc23)cn1 [Example 267, 6-((1H-pyrazol-4-yl)oxy)-N-(6-chloropyridin-3-yl)isoquinolin-1-amine] |
